These results are taken from patent US20260174769A1, “MACROCYCLIC COMPOUNDS AND METHODS OF USE” (AMGEN INC., priority 2022, published 2026).

Sequence of His-tagged KRAS G12D protein (P01116 1-188 isoform P01116-2 G12D): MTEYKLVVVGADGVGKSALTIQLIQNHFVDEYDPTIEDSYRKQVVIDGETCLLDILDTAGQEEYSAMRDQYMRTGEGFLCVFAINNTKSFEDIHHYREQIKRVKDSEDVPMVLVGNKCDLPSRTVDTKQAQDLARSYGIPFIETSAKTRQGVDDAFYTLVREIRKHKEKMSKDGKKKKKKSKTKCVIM

This experiment addresses His-tagged KRAS G12D protein (Homo sapiens, UniProt P01116, G12D). Put plainly: KRAS G12D TR-FRET Assay. It is filed as binding. The conditions noted are these: TR-FRET binding. The protocol:
The His-tagged KRAS G12D protein (Amgen) was diluted to 20 nM in Assay Buffer (20 mM HEPES, pH 7.4, 10 mM MgCl2, 50 mM NaCl, 0.1% BSA, 0.01% Tween-20, 10 μM GDP) and 2 μL was added to the appropriate wells of the 384-well plate. The plate was incubated for 30 minutes at room temperature. Biotinylated KRPep-2d substrate (Amgen) was diluted to 20 nM in Assay Buffer and 2 μL was added to all wells and incubated for 1 hour at room temperature. Detection Reagent (0.4 nM LANCE Eu-W1024 Anti-6×His (Perkin Elmer AD0401), 5 nM streptavidin-d2 (Cisbio 610SADLA)) was prepared in Assay Buffer, then 4 μL was added to the plate and incubated for 1 hour at room temperature.
Regarding `O=C1OCCCc2c(Cl)cc3[nH]ncc3c2-c2ncc3c(nc(OC[C@@]45CCCN4C[C@H](F)C5)nc3c2F)N2CC[C@H]3CCN1[C@H]3C2` (single isomer, unassigned) [Example 177], the IC50 was found to be 3 nM.

Compound `CN1CCC[C@H]1COc1nc2c3cnc(c(F)c3n1)-c1c(c(Cl)cc3[nH]ncc13)CCCOC(=O)O[C@@]1(C)COCCN2C1` (single isomer, unassigned) [Example 180] came in with an IC50 of 1510 nM. Against the preceding compound, the IC50 is about 500-fold higher. With `CN1CCC[C@H]1COc1nc2c3cnc(c(F)c3n1)-c1c(c(Cl)cc3[nH]ncc13)CCCOC(=O)O[C@]1(C)COCCN2C1` (single isomer, unassigned) [Example 181], the IC50 amounted to 6 nM. On to `Cc1cc2[nH]ncc2c2c1CCCOC(=O)O[C@@]1(C)COCCN(C1)c1nc(OC[C@@H]3CCCN3C)nc3c(F)c-2ncc13` (single isomer, unassigned) [Example 182], for which the IC50 came out at 7570 nM.

Regarding `Cc1cc2[nH]ncc2c2c1CCCOC(=O)O[C@]1(C)COCCN(C1)c1nc(OC[C@@H]3CCCN3C)nc3c(F)c-2ncc13` (single isomer, unassigned) [Example 183], the IC50 is 8 nM. For `C[C@@H](Oc1nc2c3cnc(c(F)c3n1)-c1c(c(Cl)cc3[nH]ncc13)CCCOC(=O)O[C@@H]1COCCN2C1)[C@@H]1CCCN1C` (single isomer, unassigned) [Example 203] the value was 17 nM. `C[C@H](Oc1nc2c3cnc(c(F)c3n1)-c1c(c(Cl)cc3[nH]ncc13)CCCOC(=O)O[C@@H]1COCCN2C1)[C@@H]1CCCN1C` (single isomer, unassigned) [Example 204] registered a 50% inhibitory concentration (IC50) of 34 nM. The compound `Cc1cc2[nH]ncc2c2c1C[C@@H](C)COC(=O)O[C@@H]1CCCN(C1)c1nc(OC[C@@]34CCCN3C[C@H](F)C4)nc3c(F)c-2ncc13` (single isomer, unassigned) [Example 214] showed an IC50 of 22 nM. In turn, `Cc1cc2[nH]ncc2c2c1C[C@H](C)COC(=O)O[C@@H]1CCCN(C1)c1nc(OC[C@@]34CCCN3C[C@H](F)C4)nc3c(F)c-2ncc13` (single isomer, unassigned) [Example 215] showed an IC50 of 15 nM. `Fc1cc2[nH]ncc2c2c1CCCCOC[C@@H]1CCCCN(C1)c1nc(OC[C@@]34CCCN3C[C@H](F)C4)nc3c(F)c-2ncc13` (single isomer, unassigned) [Example 239]: the IC50 was 6 nM. For `Fc1cc2[nH]ncc2c2c1CCCCOC[C@H]1CCCCN(C1)c1nc(OC[C@@]34CCCN3C[C@H](F)C4)nc3c(F)c-2ncc13` (single isomer, unassigned) [Example 240] the value was 3 nM; for `Cc1cc2[nH]ncc2c2c1CCCCO[C@H](C)[C@H]1CN(CCO1)c1nc(OC[C@@]34CCCN3C[C@H](F)C4)nc3c(F)c-2ncc13` (single isomer, unassigned) [Example 241], 1290 nM; for `Cc1cc2[nH]ncc2c2c1CCCCO[C@@H](C)[C@H]1CN(CCO1)c1nc(OC[C@@]34CCCN3C[C@H](F)C4)nc3c(F)c-2ncc13` (single isomer, unassigned) [Example 242], 1140 nM. For `Cc1cc2[nH]ncc2c2c1CCCCO[C@H](C)[C@@H]1CN(CCO1)c1nc(OC[C@@]34CCCN3C[C@H](F)C4)nc3c(F)c-2ncc13` (single isomer, unassigned) [Example 243] the value was 4480 nM.

Turning to `Cc1cc2[nH]ncc2c2c1CCCCO[C@@H](C)[C@@H]1CN(CCO1)c1nc(OC[C@@]34CCCN3C[C@H](F)C4)nc3c(F)c-2ncc13` (single isomer, unassigned) [Example 244], the IC50 was found to be 27 nM. Against the preceding compound, the IC50 is about 170-fold lower. Consider `Fc1c2ncc3c(nc(OC[C@@]45CCCN4C[C@H](F)C5)nc13)N1CCC[C@@H](C1)c1coc(n1)CCCc1c(Cl)cc3[nH]ncc3c1-2` (single isomer, unassigned) [Example 245], for which the IC50 came out at 583 nM. The compound `C[C@H]1CCOC[C@H]2CN(CCO2)c2nc(OC[C@@]34CCCN3C[C@H](F)C4)nc3c(F)c(ncc23)-c2c(c(Cl)cc3[nH]ncc23)C1` (single isomer, unassigned) [Example 252] displayed an IC50 of 28 nM. The compound `C[C@@H]1CCOC[C@H]2CN(CCO2)c2nc(OC[C@@]34CCCN3C[C@H](F)C4)nc3c(F)c(ncc23)-c2c(c(Cl)cc3[nH]ncc23)C1` (single isomer, unassigned) [Example 253] had an IC50 of 9 nM. For `Fc1c2ncc3c(nc(OC[C@@]45CCCN4C[C@H](F)C5)nc13)N1CCO[C@]3(C1)C[C@@H](C3)OCCCCc1c(Cl)cc3[nH]ncc3c1-2` (single isomer, unassigned) [Example 261] the value was 6 nM. Compound `CN1C(=O)COCC[C@H]2CCc3cc4[nH]ncc4c(c32)-c2ncc3c(nc(OC[C@@]45CCCN4C[C@H](F)C5)nc3c2F)N2CCC[C@@H]1C2` (single isomer, unassigned) [Example 278] showed an IC50 of 19300 nM.

Consider `CN1C(=O)COCC[C@@H]2CCc3cc4[nH]ncc4c(c32)-c2ncc3c(nc(OC[C@@]45CCCN4C[C@H](F)C5)nc3c2F)N2CCC[C@@H]1C2` (single isomer, unassigned) [Example 279], for which the IC50 was 333 nM. For `O=C1N[C@H]2C[C@@H](O)CN(C2)c2nc(OC[C@@]34CCCN3C[C@H](F)C4)nc3c(F)c(ncc23)-c2c(c(Cl)cc3[nH]ncc23)CCCO1` (single isomer, unassigned) [Example 285] the value was 1910 nM; for `CN1C(=O)OCCCc2c(Cl)cc3[nH]ncc3c2-c2ncc3c(nc(OC[C@@]45CCCN4C[C@H](F)C5)nc3c2F)N2C[C@@H](O)C[C@@H]1C2` (single isomer, unassigned) [Example 286], 81 nM; for `Cc1cc2[nH]ncc2c2c1CCCOC(=O)N[C@]1(C)CCCCN(C1)c1nc(OC[C@@]34CCCN3C[C@H](F)C4)nc3c(F)c-2ncc13` (single isomer, unassigned) [Example 292], 4 nM. `Cc1cc2[nH]ncc2c2c1CCCOC(=O)N[C@@]1(C)CCCCN(C1)c1nc(OC[C@@]34CCCN3C[C@H](F)C4)nc3c(F)c-2ncc13` (single isomer, unassigned) [Example 293] registered an IC50 of 50000 nM. For `Fc1c2ncc3c(nc(OC[C@@]45CCCN4C[C@H](F)C5)nc13)N1CCCC[C@@H](C1)c1cnn(n1)CCCc1c(Cl)cc3[nH]ncc3c1-2` (single isomer, unassigned) [Example 295] the value was 2250 nM; for `Fc1c2ncc3c(nc(OC[C@@]45CCCN4C[C@H](F)C5)nc13)N1CCCC[C@H](C1)c1cnn(n1)CCCc1c(Cl)cc3[nH]ncc3c1-2` (single isomer, unassigned) [Example 296], 4 nM. `Fc1c2ncc3c(nc(OC[C@@]45CCCN4C[C@H](F)C5)nc13)N1CCOC[C@@H](C1)c1cnn(n1)CCCc1c(Cl)cc3[nH]ncc3c1-2` (single isomer, unassigned) [Example 297]: the IC50 stood at 8070 nM.

As for `Fc1c2ncc3c(nc(OC[C@@]45CCCN4C[C@H](F)C5)nc13)N1CCOC[C@H](C1)c1cnn(n1)CCCc1c(Cl)cc3[nH]ncc3c1-2` (single isomer, unassigned) [Example 298], the IC50 was found to be 7 nM. For `O=C1N[C@@H]2CCCCN(C2)c2nc(OC[C@@]34CCCN3C[C@H](F)C4)nc3c(F)c(ncc23)-c2c3c(cc4[nH]ncc24)CC[C@H]3CCO1` (single isomer, unassigned) [Example 301], the IC50 was 5 nM.

`O=C1N[C@@H]2CCCCN(C2)c2nc(OC[C@@]34CCCN3C[C@H](F)C4)nc3c(F)c(ncc23)-c2c3c(cc4[nH]ncc24)CC[C@@H]3CCO1` (single isomer, unassigned) [Example 302] registered an IC50 of 1270 nM. For `C[C@@]12COCCN(C1)c1nc(OC[C@H]3CC[C@@H]4COCCN43)nc3c(F)c(ncc13)-c1c(c(Cl)cc3[nH]ncc13)CCCOC(=O)O2` (single isomer, unassigned) [Example 308] the value was 6 nM.

Regarding `C[C@@]12COCCN(C1)c1nc(OC[C@@H]3CC[C@H]4COCCN43)nc3c(F)c(ncc13)-c1c(c(Cl)cc3[nH]ncc13)CCCOC(=O)O2` (single isomer, unassigned) [Example 309], the IC50 amounted to 10 nM. Against the preceding compound, the IC50 is about 1.7-fold higher. On to `O=C1OCCCc2c(Cl)cc3[nH]ncc3c2-c2ncc3c(nc(OC[C@@]45CCCN4C[C@H](F)C5)nc3c2F)N2CCOC[C@@](CF)(C2)O1` (single isomer, unassigned) [Example 310], for which the IC50 was 2260 nM.

With `O=C1OCCCc2c(Cl)cc3[nH]ncc3c2-c2ncc3c(nc(OC[C@@]45CCCN4C[C@H](F)C5)nc3c2F)N2CCOC[C@](CF)(C2)O1` (single isomer, unassigned) [Example 311], the IC50 was found to be 5 nM.

For the compound `Cc1cc2[nH]ncc2c2c1CCOC(=O)O[C@H]1C[C@@]3(CCCN(C3)c3nc(OC[C@@H]4CCCN4C)nc4c(F)c-2ncc34)C1` (single isomer, unassigned) [Example 325], the IC50 was determined as 99 nM. As to `Cc1cc2[nH]ncc2c2c1CCOC(=O)O[C@H]1C[C@]3(CCCN(C3)c3nc(OC[C@@H]4CCCN4C)nc4c(F)c-2ncc34)C1` (single isomer, unassigned) [Example 326], the IC50 amounted to 4 nM. In turn, `CN(C)CC1(COc2nc3c4cnc(c(F)c4n2)-c2c(c(Cl)cc4[nH]ncc24)CCCOC(=O)O[C@]2(C)COCCN3C2)CC1` (single isomer, unassigned) [Example 331] had an IC50 of 5 nM. For the compound `CN(C)CC1(COc2nc3c4cnc(c(F)c4n2)-c2c(c(Cl)cc4[nH]ncc24)CCCOC(=O)O[C@@]2(C)COCCN3C2)CC1` (single isomer, unassigned) [Example 332], the 50% inhibitory concentration (IC50) stood at 3240 nM. Compound `CN1CCC[C@H]1COc1nc2c3cnc(c(F)c3n1)-c1c(c(Cl)cc3[nH]ncc13)CCCOC(=O)O[C@@]1(CF)COCCN2C1` (single isomer, unassigned) [Example 337] displayed an IC50 of 2440 nM.

By IC50 is commonly meant the concentration that gives 50% inhibition. A higher IC50 goes with lower potency.
